Our source for the Kd and melting point values is patent publication US8383652B2, “Biaromatic compounds that modulate PPAR-receptors” (Galderma Research & Development, priority 2005, dated 2013).

Data set [1] concerns the target T1, PPARγ (Homo sapiens, UniProt P37231).
T1 construct: The reporter is ERE-βGlob-Luc-SV-Neo
T1 sequence (P37231 238-505 limits assumed): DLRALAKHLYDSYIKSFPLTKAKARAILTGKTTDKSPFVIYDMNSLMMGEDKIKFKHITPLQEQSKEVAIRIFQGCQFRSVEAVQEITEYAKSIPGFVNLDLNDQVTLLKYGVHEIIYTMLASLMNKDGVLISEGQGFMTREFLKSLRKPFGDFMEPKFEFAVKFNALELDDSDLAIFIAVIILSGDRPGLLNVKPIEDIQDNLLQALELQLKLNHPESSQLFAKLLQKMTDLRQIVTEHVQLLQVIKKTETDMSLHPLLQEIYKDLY
Put plainly: Cross-curve PPAR transactivation test, PPARγ. The data set is classed as cell-based. The note with it: HeLN cells stably transfected with Gal-hPPAR and luciferase reporter; cross curves against reference agonist, Schild regression; n.a means not active; read-out: PPAR gamma Kd app. The method, then: (§1) The activation of the receptors with an agonist (activator) in HeLN cells leads to the expression of a reporter gene, luciferase, which, in the presence of a substrate, generates light. The modulation of the receptors is measured by quantifying the luminescence produced after incubating the cells in the presence of a reference agonist. The ligands displace the agonist from its site. The measurement of the activity is performed by quantifying the light produced. This measurement makes it possible to determine the modulatory activity of the compounds according to the invention by determining the constant that is the affinity of the molecule for the receptor. Since this value can fluctuate depending on the basal activity and the expression of the receptor, it is referred to as Kd apparent (KdApp in nM).
(§2) To determine this constant, “cross curves” of the test product against a reference agonist are produced in a 96-well plate: 10 concentrations of the test product plus a concentration 0 are arranged in a line, and 7 concentrations of the agonist plus a concentration 0 are arranged in a column. This is 88 measurement points for 1 product and 1 receptor. The remaining 8 wells are used for repeatability controls.
(§3) Measurements are also taken for total agonist controls with the same products.
(§4) The HeLN cell lines used are stable transfectants containing the plasmids ERE-βGlob-Luc-SV-Neo (reporter gene) and PPAR (α, δ, γ) Gal-hPPAR. These cells are inoculated into 96-well plates at a rate of 10-000 cells per well in 100 μL of DMEM medium without phenol red and supplemented with 10% of defatted calf serum. The plates are then incubated at 37° C. and 7% CO2 for 16 hours. The various dilutions of the test products and of the reference ligand are added at a rate of 5 μL per well. The plates are then incubated for 18 hours at 37° C. and 7% CO2.
(§5) The culture medium is removed by turning over and 100 μL of a 1:1 PBS/luciferin mixture are added to each well. After 5 minutes, the plates are read by the luminescence detector.
In general terms: In a reporter assay the amount or activity of a reporter protein is the signal.

Data set [2] concerns the target T2, PPARα (Homo sapiens, UniProt Q07869).
T2 construct: The reporter is ERE-βGlob-Luc-SV-Neo
T2 sequence (Q07869 200-468 limits assumed): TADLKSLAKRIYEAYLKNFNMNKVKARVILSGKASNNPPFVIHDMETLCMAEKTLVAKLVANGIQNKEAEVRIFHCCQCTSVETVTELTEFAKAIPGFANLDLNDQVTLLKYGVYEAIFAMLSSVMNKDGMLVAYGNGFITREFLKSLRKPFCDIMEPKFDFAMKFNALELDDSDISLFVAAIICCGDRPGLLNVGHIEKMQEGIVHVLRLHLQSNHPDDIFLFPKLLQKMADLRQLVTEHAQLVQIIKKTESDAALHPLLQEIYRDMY
Put plainly: Cross-curve PPAR transactivation test, PPARα. To be noted: HeLN cells stably transfected with Gal-hPPAR and luciferase reporter; cross curves against reference agonist, Schild regression; n.a means not active; read-out: PPAR alpha Kd app. The data set is classed as cell-based. How it is done: as §1, §2, §3, §4, §5

Data set [3] has as its target T3, PPARδ (Homo sapiens, UniProt Q03181).
T3 construct: The reporter is ERE-βGlob-Luc-SV-Neo
T3 sequence (Q03181 211-441 limits assumed): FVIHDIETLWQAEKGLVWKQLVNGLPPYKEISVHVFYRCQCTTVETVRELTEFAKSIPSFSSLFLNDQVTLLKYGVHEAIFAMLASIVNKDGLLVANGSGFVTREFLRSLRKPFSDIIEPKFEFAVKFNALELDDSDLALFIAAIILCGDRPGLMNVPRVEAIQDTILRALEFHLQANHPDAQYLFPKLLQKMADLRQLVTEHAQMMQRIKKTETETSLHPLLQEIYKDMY
Put plainly: Cross-curve PPAR transactivation test, PPARδ. The data set is classed as cell-based. The note with it: HeLN cells stably transfected with Gal-hPPAR and luciferase reporter; cross curves against reference agonist, Schild regression; n.a means not active; read-out: PPARs delta Kd app. The method, then: as §1, §2, §3, §4, §5

Structures can show the parent of a compound that is named as a salt.

With `CO/C(=C\c1ccc(-c2cccc(N(C)C(=O)NCCc3ccccc3)c2)cc1)C(=O)O` [Compound 16, (Z)-2-methoxy-3-[3′-(1-methyl-3-phenethylureido)biphenyl-4-yl]acrylic acid], in data set [1], the Kd is 8 nM.

In the case of `CCCCCNC(=O)N(C)c1cccc(-c2ccc(/C=C(\CCC)C(=O)O)cc2)c1` [Compound 8, 2-[1-[3′-(1-methyl-3-pentylureido)biphenyl-4-yl]meth-(E)-ylidene]pentanoic acid], the results for the Kd in data set [1], in data set [2] and in data set [3] were 4 nM, 500 nM and 2000 nM, respectively.

With `CCCCCCCNC(=O)N(C)c1cccc(-c2ccc(/C=C(\OCC)C(=O)O)cc2)n1` [Compound 2, (Z)-2-ethoxy-3-{4-[6-(3-heptyl-1-methylureido)pyrid-2-yl]phenyl}acrylic acid], the Kd stood at 30 nM in data set [1] and 1000 nM in data set [2].

One may read the melting point as the temperature, or range, at which the solid turns liquid. On to `CCCCCNC(=O)N(C)c1cccc(-c2ccc(/C=C(\OCC)C(=O)O)cc2)n1` [Compound 3, (Z)-2-ethoxy-3-{4-[6-(1-methyl-3-pentylureido)pyrid-2-yl]phenyl}acrylic acid], for which the melting point came out at 162 °C. The Kd in data set [1] was 30 nM.

As for `CCCCCCCC(=O)N(C)Cc1cccc(-c2ccc(/C=C(\OCC)C(=O)O)cc2)c1` [Compound 1, (Z)-2-ethoxy-3-{3′-[(methyloctanoylamino)methyl]biphenyl-4-yl}acrylic acid], the Kd in data set [1] amounted to 30 nM; in data set [2], 2000 nM.

`CCCCCNC(=O)N(C)c1cccc(-c2ccc(/C=C(\OC)C(=O)O)cc2OCCCC)c1` [Compound 24, (Z)-3-[2-butoxy-3′-(1-methyl-3-pentylureido)biphenyl-4-yl]-2-methoxyacrylic acid] yielded a melting point of 61 °C.

As for `CO/C(=C\c1ccc(-c2cccc(N(C)C(=O)NC3CCCCC3)c2)cc1)C(=O)O` [Compound 15, (Z)-3-[3′-(3-cyclohexyl-1-methylureido)biphenyl-4-yl]-2-methoxyacrylic acid], the Kd in data set [1] was found to be 8 nM.

`CCCCCNC(=O)N(C)c1cccc(-c2ccc(/C=C(\OC)C(=O)O)cc2)c1` [Compound 13, (Z)-2-Methoxy-3-[3′-(1-methyl-3-pentylureido)biphenyl-4-yl]acrylic acid]: the Kd in data set [1] was 8 nM; in data set [3], 4000 nM.

As for `CCCCCCCNC(=O)N(C)c1cccc(-c2ccc(/C=C(\OCC)C(=O)O)cn2)c1` [Compound 4, (Z)-2-ethoxy-3-{6-[3-(3-heptyl-1-methylureido)phenyl]pyrid-3-yl}acrylic acid hydrochloride], the Kd in data set [1] came to 4 nM.

Take `CCCCCCCNC(=O)N(C)c1cccc(-c2ccc(/C=C(\C)C(=O)O)cc2OCCC)c1` [Compound 31, (E)-3-[3′-(3-heptyl-1-methylureido)-2-propoxybiphenyl-4-yl]-2-methylacrylic acid]: the Kd in data set [1] was found to be 2 nM.

With `COC(=O)/C(=C/c1ccc(-c2cccc(N(C)C(=O)NC3CCCCC3)c2)cc1)OC` [Compound 14, Methyl (Z)-3-[3′-(3-cyclohexyl-1-methylureido)biphenyl-4-yl]-2-methoxyacrylate], the Kd is 60 nM in data set [1] and 4000 nM in data set [3].

Turning to `CCCCOc1cc(/C=C(\CC)C(=O)O)ccc1-c1cccc(CN(C)C(=O)c2ccccc2)c1` [Compound 22, 2-[1-{3′-[(benzoylmethylamino)methyl]-2-butoxybiphenyl-4-yl}meth-(E)-ylidene]butyric acid], the Kd in data set [1] is 120 nM.

On to `CCO/C(=C\c1ccc(-c2cccc(N(C)C(=O)NCCc3ccccc3)c2)cc1)C(=O)O` [Compound 10, (Z)-2-ethoxy-3-[3′-(1-methyl-3-phenethylureido)biphenyl-4-yl]acrylic acid], for which the Kd in data set [1] came to 4 nM.

`CCCCCCCNC(=O)N(C)c1cccc(-c2ccc(/C=C(\F)C(=O)O)cc2)c1` [Compound 6, (Z)-2-fluoro-3-[3′-(3-heptyl-1-methylureido)biphenyl-4-yl]acrylic acid]: the Kd in data set [1] was 60 nM.

For `CCCCCCCNC(=O)N(C)c1cccc(-c2ccc(/C=C(\CC)C(=O)O)cc2)c1` [Compound 7, 2-[1-[3′-(3-heptyl-1-methylureido)biphenyl-4-yl]meth-(E)-ylidene]butyric acid], the Kd in data set [1] stood at 4 nM.

Regarding `CCCCCCCNC(=O)N(C)c1cccc(-c2ccc(/C=C(\C)C(=O)O)cc2)c1` [Compound 5, (E)-3-[3′-(3-heptyl-1-methylureido)biphenyl-4-yl]-2-methylacrylic acid], the Kd in data set [1] was determined as 2 nM.

Consider `CCCCOc1cc(/C=C(\C)C(=O)O)ccc1-c1cccc(CN(C)C(=O)c2cccc(OC)c2)c1` [Compound 21, (E)-3-(2-butoxy-3′-{[(3-methoxybenzoyl)methylamino]methyl}biphenyl-4-yl)-2-methylacrylic acid], for which the Kd in data set [1] was determined as 30 nM.

In the case of `CCCCCCCNC(=O)N(C)c1cccc(-c2ccc(/C=C(\C)C(=O)O)cc2OCC)c1` [Compound 32, (E)-3-[2-ethoxy-3′-(3-heptyl-1-methylureido)biphenyl-4-yl]-2-methylacrylic acid], the values for the Kd in data set [1] and in data set [2] were 1 nM and 4000 nM, respectively.

Consider `CCCCNC(=O)N(C)c1cccc(-c2ccc(/C=C(\OC)C(=O)O)cc2)c1` [Compound 11, (Z)-3-[3′-(3-butyl-1-methylureido)biphenyl-4-yl]-2-methoxyacrylic acid], for which, in data set [1], the Kd stood at 4 nM.

As for `CCCCCNC(=O)N(C)c1cccc(-c2ccc(/C=C(\CC)C(=O)O)cc2)c1` [Compound 9, 2-[1-[3′-(1-methyl-3-pentylureido)biphenyl-4-yl]meth-(E)-ylidene]butyric acid], the results for the Kd in data set [1], in data set [2] and in data set [3] were 4 nM, 2000 nM and 2000 nM, respectively.
